{"source": "patent US10124017B2", "about": "“Use of Ginsenoside M1 for preventing or treating gout” (priority 2015, dated 2018)", "key": {"[1]": {"test_system": "mouse J774A.1 macrophages", "assay": "MSU-induced IL-1β production in LPS-primed J774A.1 macrophages (ELISA)", "type": "cell-based", "details": "1 μg/ml LPS 30 min, then 100 μg/ml MSU 24 h; FIG. 1; p<0.001 compared to MSU alone", "description": "(§1) The mouse macrophages cell line J774A.1 and human monocytic leukemia cell line THP-1 was obtained from the American Type Culture Collection (Rockville, Md.) and cultured in RPMI 1640 medium supplemented with 10% heat-inactivated fetal bovine serum (FBS) and 2 mM L-glutamine (all from Life Technologies, Carlsbad, Calif.) at 37° C. in a 5% CO2 incubator. To induce monocyte-to-macrophage differentiation, THP-1 cells were cultured for 48 h in RPMI-1640 medium supplemented with 100 nM phorbol 12-myristate 13-acetate (Sigma-Aldrich).\n(§2) In FIGS. 1 and 2, J774A.1 macrophages (1×10^5 cells/500 μl medium/well) were incubated for 30 min with or without Ginsenoside M1, then for 30 min with or without 1 μg/ml LPS (from Escherichia coli 0111:B4, purchased from Sigma, St. Louis, Mo.) in the continued presence or absence of Ginsenoside M1, and then for 24 h with or without 100 μg/ml MSU or 100 μg/ml CPPD (all purchased from InvivoGen, San Diego, Calif.). The levels of IL-1β in the culture medium were measured by ELISA.\n(§3) For ELISA assay, 50 μl of biotinylated antibody reagent and 50 μl of culture medium were added to an anti-mouse IL-1β or IL-6 precoated stripwell plate, and incubated at room temperature for 2 h. […] Following the addition of 100 μl of provided stop solution to each well to stop the reaction, the absorbance of the plate was measured by a microplate reader at a 450 nm wavelength. […]"}, "[2]": {"test_system": "mouse J774A.1 macrophages", "assay": "CPPD-induced IL-1β production in LPS-primed J774A.1 macrophages (ELISA)", "type": "cell-based", "details": "1 μg/ml LPS 30 min, then 100 μg/ml CPPD 24 h; FIG. 2; p<0.001 compared to CPPD alone", "description": "as §1, §2, §3"}, "[3]": {"test_system": "LPS-activated J774A.1 macrophages", "assay": "LPS-induced NLRP3 and proIL-1β expression in J774A.1 macrophages (Western blot)", "type": "cell-based, mouse", "details": "1 μg/ml LPS 6 h, FIG. 3", "description": "as §1\nIn FIG. 3, J774A.1 macrophages (2×10^6 cells/2 ml medium/dish) were incubated for 30 min with or without Ginsenoside M1, then for 6 h with or without 1 μg/ml LPS (from Escherichia coli 0111:B4, purchased from Sigma, St. Louis, Mo.) in the continued presence or absence of Ginsenoside M1. The levels of NLRP3 and proIL-1β in the cell lysates were measured by Western blot. […]\nJ774A.1 macrophages were incubated for 30 min with or without Ginsenoside M1, then for 6 h with or without 1 μg/ml LPS in the continued presence or absence of Ginsenoside M1. The levels of NLRP3 and proIL-1β in the cell lysates were measured by Western blot."}, "human THP-1 macrophages": {"test_system": "human THP-1 macrophages", "assay": "MSU-induced IL-1β, TNF-α and IL-6 production in LPS-primed THP-1 macrophages (ELISA)", "type": "cell-based", "details": "1 μg/ml LPS 6 h, then 100 μg/ml MSU 24 h", "description": "as §1\n(§4) In FIG. 4-6, THP-1 macrophages (1×10^5 cells/500 μl medium/well) were incubated for 6 h with or without 1 μg/ml LPS, then for 30 min with or without Ginsenoside M1, in the continued presence or absence of LPS, and then for 24 h with or without 100 μg/ml MSU. The levels of IL-1β in the culture medium were measured by ELISA.\n(§5) For ELISA assay, 50 μl of biotinylated antibody reagent and 50 μl of culture medium were added to an anti-mouse IL-1β or IL-6 precoated stripwell plate, and incubated at room temperature for 2 h. After washing the plate three times with washing buffer, 100 μl of diluted streptavidin-HRP (horseradish peroxidase) concentrate was added to each well and incubated at room temperature for 30 min. The washing process was repeated; then 100 μl of a premixed tetramethylbenzidine substrate solution was added to each well and developed at room temperature in the dark for 30 min. Following the addition of 100 μl of provided stop solution to each well to stop the reaction, the absorbance of the plate was measured by a microplate reader at a 450 nm wavelength.\nas §4, with “To confirm the anti-inflammatory activities of Ginsenoside M1, human” for “In FIG. 4-6,”, “macrophages” for “macrophages (1×10^5 cells/500 μl medium/well)”"}, "C57BL/6 mice": {"test_system": "C57BL/6 mice", "assay": "MSU-induced peritonitis in vivo (acute gout inflammation)", "set-up": "species or system mouse", "details": "60 mg/kg oral by gavage day 0, 1, 2, 3 mg MSU i.p., p<0.001 compared to MSU-injection group", "description": "In FIG. 7-9, the animal experiments were conducted in accordance with the guidelines of the National Institutes of Health and approved by the Institutional Animal Care and Use Committee of National Ilan University. Male C57BL/6 mice were purchased from the National Laboratory Animal Center (Taipei, Taiwan). The animals were provided a chow diet and water ad libitum under conditions of 22-24° C., 40-70% relative humidity, and a 12 h light-dark cycle. Ginsenoside M1 (60 mg/kg body weight) was oral administered daily by gavage at day 0, 1 and 2. Acute gout inflammation was induced by intraperitoneal injection each mice with 3 mg of MSU in 0.5 mL of phosphate-buffered saline (PBS) at day 0 and day 2 1 h after Ginsenoside M1 administration. Control mice received 0.5 mL PBS without MSU (n=6). After 4 h, all mice were sacrificed using neck breaking, and the mice were intraperitoneally injected with 5 mL of PBS. The peritoneal fluid was then collected, and the volume of peritoneal fluid was about 4 mL from each mouse. The collected peritoneal exudate cells were washed and resuspended in PBS. The cells were stained with fluorescent antibodies against the neutrophils specific surface markers Ly-6G and CD45 (eBioscience, San Diego, Calif., USA) for 20 min at 37° C. in the dark, and the cell populations were sorted using a FACScan flow cytometer (Becton-Dickinson, San Jose, Calif.). The levels of IL-1β and IL-6 in the peritoneal fluid were measured by ELISA.\nas §5, with “The washing process was repeated; then 100 μl of a premixed tetramethylbenzidine substrate solution was added to each well and developed at room temperature in the dark for 30 min.” left out"}}}
{"smiles": "CC(C)=CCC[C@](C)(O[C@@H]1OC(CO)[C@@H](O)[C@@H](O)C1O)[C@H]1CC[C@]2(C)C1[C@H](O)CC1[C@@]3(C)CC[C@H](O)C(C)(C)C3CC[C@]12C", "note": "(stereo partly drawn) [Ginsenoside M1, 20-O-β-D-glucopyranosyl-20(S)-protopanaxadiol]", "values": [{"measurement": "IL-1β secretion in the culture medium", "setting": "[1]", "result": "reduced"}, {"measurement": "IL-1β secretion in the culture medium", "setting": "[2]", "result": "reduced"}, {"measurement": "level of NLRP3 in the cell lysates", "setting": "[3]", "result": "reduced"}, {"measurement": "level of proIL-1β in the cell lysates", "setting": "[3]", "result": "reduced"}, {"measurement": "IL-1β production in the culture medium", "setting": "human THP-1 macrophages; FIG. 4, p<0.05 and p<0.001 compared to MSU alone", "result": "reduced"}, {"measurement": "TNF-α production in the culture medium", "setting": "human THP-1 macrophages; FIG. 5, p<0.05 and p<0.001 compared to MSU alone", "result": "reduced"}, {"measurement": "IL-6 production in the culture medium", "setting": "human THP-1 macrophages; FIG. 6, p<0.001 compared to MSU alone", "result": "reduced"}, {"measurement": "MSU-induced IL-1β production in the murine peritoneal fluid", "setting": "C57BL/6 mice; FIG. 7", "result": "significantly reduced"}, {"measurement": "MSU-induced IL-6 production in the murine peritoneal fluid", "setting": "C57BL/6 mice; FIG. 8", "result": "significantly reduced"}, {"measurement": "levels of MSU-induced Ly-6G+ neutrophils in the peritoneal fluid", "setting": "C57BL/6 mice; flow cytometry, FIG. 9", "result": "significantly reduces"}]}
